# Patent US20230183239A1, “ECTONUCLEOTIDE PYROPHOSPHATASE-PHOSPHODIESTERASE 1 (ENPP-1) INHIBITORS AND USES THEREOF” (AbbVie Inc., priority 2017, published 2023)
# Target: T1, ENPP1 (Homo sapiens, UniProt P22413)
# T1 sequence (P22413 1-925): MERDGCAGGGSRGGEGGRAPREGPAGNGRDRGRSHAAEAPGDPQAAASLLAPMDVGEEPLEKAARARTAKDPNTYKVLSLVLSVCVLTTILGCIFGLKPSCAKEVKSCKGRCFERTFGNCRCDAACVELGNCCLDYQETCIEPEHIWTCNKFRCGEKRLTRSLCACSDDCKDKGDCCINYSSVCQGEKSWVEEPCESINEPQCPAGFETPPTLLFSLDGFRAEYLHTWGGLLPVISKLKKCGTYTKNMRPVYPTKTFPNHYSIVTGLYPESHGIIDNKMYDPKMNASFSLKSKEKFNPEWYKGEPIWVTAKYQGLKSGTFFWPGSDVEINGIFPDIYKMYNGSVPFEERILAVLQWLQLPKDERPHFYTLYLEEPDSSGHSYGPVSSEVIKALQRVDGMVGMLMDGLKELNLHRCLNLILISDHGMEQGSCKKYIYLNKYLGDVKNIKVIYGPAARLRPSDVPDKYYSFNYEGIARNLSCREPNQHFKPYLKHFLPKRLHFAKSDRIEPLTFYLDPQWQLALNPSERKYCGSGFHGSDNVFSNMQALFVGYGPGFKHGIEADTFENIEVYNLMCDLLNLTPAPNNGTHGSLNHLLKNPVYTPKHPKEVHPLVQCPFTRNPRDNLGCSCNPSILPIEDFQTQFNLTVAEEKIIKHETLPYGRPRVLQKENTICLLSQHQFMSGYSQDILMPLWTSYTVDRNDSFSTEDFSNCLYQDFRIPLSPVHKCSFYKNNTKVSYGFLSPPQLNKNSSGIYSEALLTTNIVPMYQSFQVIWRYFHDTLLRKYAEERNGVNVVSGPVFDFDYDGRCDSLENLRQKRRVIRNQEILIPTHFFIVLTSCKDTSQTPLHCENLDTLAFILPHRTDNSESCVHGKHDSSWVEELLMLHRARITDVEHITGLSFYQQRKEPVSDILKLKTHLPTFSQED
# Assay: Indirect quantitation of 2',3'-cGAMP hydrolysis (AMP-Glo Assay kit)
# Type: biochemical
# Details: cGAMP substrate; Ki from IC50 by Cheng-Prusoff; read-out: ENPP1 Inhibition -cGAMP: Ki
row,Compound,Ki
1,"COc1cc2ncnc(N3CCC(CCNS(=O)(=O)NC(C)C)CC3)c2cc1OC [Example 142, 2-(1-(6,7-dimethoxyquinazolin-4-yl)piperidin-4-yl)ethan-1-amino(N-prop-2-yl)sulfonamide]",> 1 µM
2,"COc1ccc2c(Oc3ccc(S(N)(=O)=O)cc3)c(C#N)cnc2c1 [Example 327, 4-((3-cyano-7-methoxyquinolin-4-yl)oxy)benzenesulfonamide]",< 0.1 µM
3,"COc1ccc(S(=O)(=O)N2CCN(CCO)CC2)cc1OC [Example 340, 2-(4-((3,4-dimethoxyphenyl)sulfonyl)piperazin-1-yl)ethan-1-ol]",> 1 µM
4,"COc1cc2nccc(NC(C)c3ccc(NS(N)(=O)=O)cc3)c2cc1OC (centres unmarked) [Example 181, N-(4-(1-((6,7-dimethoxyquinolin-4-yl)amino)ethyl)phenyl)sulfamide]",> 1 µM
5,"COc1cc2nccc(N3CCC(CN4CCCNS4(=O)=O)CC3)c2cc1OC [Example 223, 2-((1-(6,7-dimethoxyquinolin-4-yl)piperidin-4-yl)methyl)-1,2,6-thiadiazinane 1,1-dioxide]",> 1 µM
6,"COc1ccc2c(Oc3ccc(N(C)S(N)(=O)=O)cc3)ccnc2c1 [Example 77, N-(4-((7-methoxyquinolin-4-yl)oxy)phenyl)-N-methylsulfamide]",< 0.1 µM
7,"COc1cnc(C(=O)N2CCC(CCNS(N)(=O)=O)CC2)cc1OC [Example 124, N-(2-(1-(4,5-dimethoxypicolinoyl)piperidin-4-yl)ethyl)sulfamide]",> 1 µM
8,"COc1ccc2c(Oc3ccc(NS(N)(=O)=O)c(OC)c3)ccnc2c1 [Example 78, N-(2-methoxy-4-((7-methoxyquinolin-4-yl)oxy)phenyl)sulfamide]",< 0.1 µM
9,"NS(=O)(=O)Nc1ccc(Oc2ccnc3cc(F)ccc23)cc1 [Example 298, N-(4-((7-fluoroquinolin-4-yl)oxy)phenyl)sulfamide]",> 1 µM
10,"COc1cc2cnn(-c3ccc(CNS(N)(=O)=O)cc3)c2cc1OC [Example 166, N-(4-(5,6-dimethoxy-1H-indazol-1-yl)benzyl)sulfamide]",0.1 to 1 µM
11,"COc1cc2nccc(Oc3ccc(N)c(F)c3)c2cc1OC [Example 344, 4-((6,7-dimethoxyquinolin-4-yl)oxy)-2-fluoroaniline]",> 1 µM
12,"COc1ccc2c(-n3cc(CNS(N)(=O)=O)cn3)ccnc2c1 [Example 414, N-((1-(7-methoxyquinolin-4-yl)-1H-pyrazol-4-yl)methyl)sulfamide]",0.1 to 1 µM
13,"Cc1ncnc(N2CCC(NS(N)(=O)=O)CC2)c1C [Example 39, N-(1-(5,6-dimethylpyrimidin-4-yl)piperidin-4-yl)sulfamide]",> 1 µM
14,"COc1cc2ncnc(N3CCC(CCNS(C)(=O)=O)CC3)c2cc1OC [Example 338, N-(2-(1-(6,7-dimethoxyquinazolin-4-yl)piperidin-4-yl)ethyl)methanesulfonamide]",0.1 to 1 µM
15,"COc1cnc2c(Oc3ccc(NS(N)(=O)=O)cc3)ccnc2c1 [Example 349, N-(4-((7-methoxy-1,5-naphthyridin-4-yl)oxy)phenyl) sulfamide]",> 1 µM
16,"COc1cc2ncnc(NC(C)(C)c3ccc(NS(N)(=O)=O)cc3)c2cc1OC [Example 287, N-(4-(2-((6,7-dimethoxyquinazolin-4-yl)amino)propan-2-yl)phenyl)sulfamide]",> 1 µM
17,"NS(=O)(=O)NCCC1CCN(c2ncnc3c[nH]nc23)CC1 [Example 27, N-(2-(1-(1H-pyrazolo[4,3-d]pyrimidin-7-yl)piperidin-4-yl)ethyl)sulfamide]",> 1 µM
18,"COc1cc2ncnc(N3CCC(CCNC(N)=O)CC3)c2cc1OC [Example 117, 1-(2-(1-(6,7-dimethoxyquinazolin-4-yl)piperidin-4-yl)ethyl)urea]",0.1 to 1 µM
19,"COc1cc2c(-c3ccc4c(c3)CN(S(N)(=O)=O)CC4)c(C#N)cnc2cn1 [Example 257, 7-(3-cyano-6-methoxy-1,7-naphthyridin-4-yl)-3,4-dihydroisoquinoline-2(1H)-sulfonamide]",> 1 µM
20,"COc1cc2ncnc(N3CCc4c(cccc4S(=O)(=O)N4CCN(C)CC4)C3)c2cc1OC [Example 41, 6,7-dimethoxy-4-(5-((4-methylpiperazin-1-yl)sulfonyl)-3,4-dihydroisoquinolin-2(1H)-yl)quinazoline]",> 1 µM
21,"COc1ccc(-c2cc(N3CCC(CNS(N)(=O)=O)CC3)ncn2)cc1OC [Example 37, N-((1-(6-(3,4-dimethoxyphenyl)pyrimidin-4-yl)piperidin-4-yl)methyl)sulfamide]",> 1 µM
22,"COc1cc2ncnc(Nc3ccc(CC(=O)O)cc3)c2cc1OC [Example 332, 2-(4-((6,7-dimethoxyquinazolin-4-yl)amino)phenyl)acetic acid]",> 1 µM
23,"COc1ccc2c(Oc3ccc(NS(N)(=O)=O)cc3C)ccnc2c1 [Example 326, N-(4-((7-methoxyquinolin-4-yl)oxy)-3-methylphenyl)sulfamide]",< 0.1 µM
24,"CNC(=O)c1cc(Oc2ccc(NS(N)(=O)=O)cc2)ccn1 [Example 127, N-methyl-4-(4-(sulfamoylamino)phenoxy)picolinamide]",> 1 µM
25,"N#Cc1cnc2cc3c(cc2c1N1CCC(CCNS(N)(=O)=O)CC1)OCO3 [Example 221, N-(2-(1-(7-cyano-[1,3]dioxolo[4,5-g]quinolin-8-yl)piperidin-4-yl)ethyl)sulfamide]",> 1 µM
26,"COc1cc2nc(-c3ccccc3)nc(N3CCC(CCNS(N)(=O)=O)CC3)c2cc1OC [Example 8, N-(2-(1-(6,7-dimethoxy-2-phenylquinazolin-4-yl)piperidin-4-yl)ethyl)sulfamide]",> 1 µM
27,"NS(=O)(=O)NCCC1CCN(c2ccnc3ncn(-c4ccccc4)c23)CC1 [Example 211, N-(2-(1-(1-phenyl-1H-imidazo[4,5-b]pyridin-7-yl)piperidin-4-yl)ethyl)sulfamide]",> 1 µM
28,"COc1ccc2c(-c3cc4c(cc3F)CCN(S(N)(=O)=O)C4)ccnc2c1 [Example 409, 6-fluoro-7-(7-methoxyquinolin-4-yl)-3,4-dihydroisoquinoline-2(1H)-sulfamide]",> 1 µM

# More lines, now with the values ahead:
row,Ki,Compound
1,> 1 µM,"NS(=O)(=O)NCCC1CCN(c2ccnc3cc4c(cc23)OCO4)CC1 [Example 215, N-(2-(1-([1,3]dioxolo[4,5-g]quinolin-8-yl)piperidin-4-yl)ethyl)sulfamide]"
2,0.1 to 1 µM,"COc1cc2nccc(-c3ccc(CNS(N)(=O)=O)cc3)c2cn1 [Example 415, N-(4-(7-methoxy-1,6-naphthyridin-4-yl)benzyl)sulfamide]"
3,> 1 µM,"COc1cc2nccc(Oc3ccc(NS(N)(=O)=O)nc3)c2cc1OC [Example 176, N-(5-((6,7-dimethoxyquinolin-4-yl)oxy)pyridin-2-yl)sulfamide]"
4,> 1 µM,"NS(=O)(=O)Nc1ccc(Oc2ccnc3[nH]ccc23)cc1 [Example 321, N-(4-((1H-pyrrolo[2,3-b]pyridin-4-yl)oxy)phenyl)sulfamide]"
5,> 1 µM,"COc1cc2ncnc(NCc3ccc(N4CCNS4(=O)=O)cc3)c2cc1OC [Example 228, 2-(4-(((6,7-dimethoxyquinazolin-4-yl)amino)methyl)phenyl)-1,2,5-thiadiazolidine 1,1-dioxide]"
6,> 1 µM,"NS(=O)(=O)NCCC1CCN(c2ncnc3ccc(OC(F)(F)F)cc23)CC1 [Example 194, N-(2-(1-(6-(trifluoromethoxy)quinazolin-4-yl)piperidin-4-yl)ethyl)sulfamide]"
7,> 1 µM,"NS(=O)(=O)NCCC1CCN(c2ncnc3cc4c(cc23)OCO4)CC1 [Example 170, N-(2-(1-([1,3]dioxolo[4,5-g]quinazolin-8-yl)piperidin-4-yl)ethyl)sulfamide]"
8,0.1 to 1 µM,"COc1ccc2nccc(Oc3ccc(NS(N)(=O)=O)cc3)c2n1 [Example 346, N-(4-((6-methoxy-1,5-naphthyridin-4-yl)oxy)phenyl)sulfamide]"
9,> 1 µM,"COc1cc2ccn(-c3ccc(CNS(N)(=O)=O)cc3)c2cc1OC [Example 186, N-(4-(5,6-dimethoxy-1H-indol-1-yl)benzyl)sulfamide]"
10,> 1 µM,"COc1ccc2c(-c3ccc4c(c3)CCN(S(N)(=O)=O)C4)ccnc2c1 [Example 366, 6-(7-methoxyquinolin-4-yl)-3,4-dihydroisoquinoline-2(1H)-sulfonamide]"
11,> 1 µM,"COc1cc(C#N)c(C(=O)N2CCC(CCNS(N)(=O)=O)CC2)cc1OC [Example 129, N-(2-(1-(2-cyano-4,5-dimethoxybenzoyl)piperidin-4-yl)ethyl)sulfamide]"
12,> 1 µM,"COc1ccc2c(-c3ccc4c(c3)CNCC4)c(C#N)cnc2c1 [Example 276, 7-methoxy-4-(1,2,3,4-tetrahydroisoquinolin-7-yl)quinoline-3-carbonitrile]"
13,> 1 µM,"COc1cc2ncc(-c3ccc(CNS(N)(=O)=O)cc3)nc2cc1OC [Example 278, N-(4-(6,7-dimethoxyquinoxalin-2-yl)benzyl)sulfamide]"
